Values quoted from earlier work, collected in PubChem BioAssay AID1259409 (Chemical Carcinogenesis Research Information System (CCRIS), 2018).
Where “and” joins values, the source holds several entries; their conditions need not be identical. Identical values can stand only once.

Tested on: rodent chemically induced tumor inhibition, incidence and multiplicity
Test: CCRIS tumor inhibitor studies

In the case of `CC(C)(C)c1cc(CO)cc(C(C)(C)C)c1O`, the “tumour outcome (control, treated, inhibition, significance)” value (Carcinogen: 7,12-DIMETHYLBENZ[A]ANTHRACENE, 57-97-6, Dose [Inhibitor]: 0, 200 MG/KG BW/D FOR 3 WK BEGINNING 2 WK PRIOR TO CARCINOGEN DOSE (STUDY DURATION: 24 WK), Route [Inhibitor]: INTRAPERITONEAL, Species: RAT, Strain/Sex: SPRAGUE-DAWLEY/FEMALE, Target Tissue: Type of Lesion: MAMMARY GLAND: TUMOR, Dose [Carcinogen]: 33.3 MG/KG BW IN 0.25 ML CORN OIL ONCE AT 50 D OF AGE, Promoter: NONE USED) is listed as 91%, 81%, 11%, not significant.
For `CCCCC1OC(=O)c2ccccc21` (stereo not drawn), the “tumour outcome (control, treated, inhibition, significance)” value (Carcinogen: BENZO[A]PYRENE, 50-32-8, Dose [Inhibitor]: 0, 20 MG 3/WK FOR 4 WK ON DAYS OTHER THAN THE CARCINOGEN TREATMENT (STUDY DURATION: 20 WK), Route [Inhibitor]: GAVAGE, Species: MOUSE, Strain/Sex: STRAIN-A/FEMALE, Target Tissue: Type of Lesion: FORESTOMACH: TUMOR, Dose [Carcinogen]: 1 MG IN 0.2 ML COTTONSEED OIL 2/WK FOR 4 WK, Promoter: NONE USED) is given as 13/19 (68%), 6/20 (30%), 56%, p<0.005.
In the case of `NC(C[Se][Se]CC(N)C(=O)O)C(=O)O` (stereo not drawn), the “tumour outcome (control, treated, inhibition, significance)” value (Carcinogen: 7,12-DIMETHYLBENZ[A]ANTHRACENE, 57-97-6, Dose [Inhibitor]: 0, 0.2 PPM IN DIET BEGINNING 3 D PRIOR TO CARCINOGEN DOSE AND CONTINUING FOR 8 MO (STUDY DURATION: 8 MO), Route [Inhibitor]: ORAL, Species: MOUSE, Strain/Sex: BALB/FEMALE, Target Tissue: Type of Lesion: MAMMARY GLAND: ADENOCARCINOMA, Dose [Carcinogen]: 1 MG/WK FOR 6 WK, Promoter: NONE USED) is given as 12/31 (39%), 8/28 (29%), 26%, not calculated and the “tumour outcome (control, treated, inhibition, significance)” value (Carcinogen: 7,12-DIMETHYLBENZ[A]ANTHRACENE, 57-97-6, Dose [Inhibitor]: 0, 2 PPM IN DIET BEGINNING 3 D PRIOR TO CARCINOGEN DOSE AND CONTINUING FOR 8 MO (STUDY DURATION: 8 MO), Route [Inhibitor]: ORAL, Species: MOUSE, Strain/Sex: BALB/FEMALE, Target Tissue: Type of Lesion: MAMMARY GLAND: ADENOCARCINOMA, Dose [Carcinogen]: 1 MG/WK FOR 6 WK, Promoter: NONE USED) is given as 12/31 (39%), 7/24 (29%), 26%, not calculated.
For `Oc1c(F)c(F)cc(F)c1F`, the “tumour outcome (control, treated, inhibition, significance)” value (Carcinogen: BENZO[A]PYRENE, 50-32-8, Dose [Inhibitor]: 0.03 MMOL/G OF DIET DAILY STARTING 7 D BEFORE AND CONTINUING THROUGH 3 D AFTER CARCINOGEN TREATMENT FOLLOWED BY OBSERVAT, Route [Inhibitor]: ORAL, Species: MOUSE, Strain/Sex: ICR/FEMALE, Target Tissue: Type of Lesion: FORESTOMACH: NEOPLASM, Dose [Carcinogen]: 1 MG IN 0.2 ML CORN OIL 2/WK FOR 4 WK, Promoter: NONE USED) is given as 100%, 95%, 5%, not significant and 97%, 84%, 13%, not significant.
For `O=c1c(-c2ccc(O)cc2)coc2cc(O)ccc12`, the “tumour outcome (control, treated, inhibition, significance)” value (Carcinogen: 7,12-DIMETHYLBENZ[A]ANTHRACENE (57-97-6), Dose [Inhibitor]: 105 MG/KG DIET FOR 17 WKS (STUDY DURATION: 17 WKS), Route [Inhibitor]: DIET, Species: RAT, Strain/Sex: SPRAGUE-DAWLEY/FEMALE (20,18)/(20,19), Target Tissue: Type of Lesion: MAMMARY, Dose [Carcinogen]: 12.5 MG ONCE 1 WK AFTER START OF DIET (STUDY DURATION: 17 WKS)) is given as 95%, 85%, 11%, p=0.366, the “tumour outcome (control, treated, inhibition, significance)” value (Carcinogen: N-METHYL-N-NITROSOUREA, 684-93-5, Dose [Inhibitor]: 0, 1 MG/30 G BW 1/4 WK FOR 25 WK BEGINNING 5 WK POST CARCINOGEN TREATMENT (STUDY DURATION: 30 WK), Route [Inhibitor]: SUBCUTANEOUS, Species: MOUSE, Strain/Sex: ICR/FEMALE, Target Tissue: Type of Lesion: UTERUS (LEFT): ADENOCARCINOMA, Dose [Carcinogen]: 0.1 MG/KG BW INJECTED INTO LEFT UTERINE TUBE ONCE) is given as 3/26 (11%), 0/14 (0%), 100%, not significant and the “tumour outcome (control, treated, inhibition, significance)” value (Carcinogen: N-METHYL-N-NITROSOUREA, 684-93-5, Dose [Inhibitor]: 0, 1 MG/30 G BW 1/4 WK FOR 25 WK BEGINNING 5 WK POST CARCINOGEN TREATMENT (STUDY DURATION: 30 WK), Route [Inhibitor]: SUBCUTANEOUS, Species: MOUSE, Strain/Sex: ICR/FEMALE, Target Tissue: Type of Lesion: UTERUS (LEFT): ADENOCARCINOMA, Dose [Carcinogen]: 0.1 MG/KG BW INJECTED INTO LEFT UTERINE TUBE ONCE, Promoter: 17-BETA-ESTRADIOL, 50-28-2) is given as 8/24 (33%), 1/23 (4%), 87%, p<0.05.
